Results on five compounds are retold here after patent US20090137617A1, “USE OF HAPTOGLOBIN GENOTYPING IN DIAGNOSIS AND TREATMENT OF CARDIOVASCULAR DISEASE” (priority 2007, published 2009).

Read-outs that look alike come from different tables or passages of the source.

The conditions of data set [1]: animal studies; cited from earlier work.
Data set [2] has as its system DM individuals with the Hp 2-2 genotype. In words: ICARE study: randomized placebo-controlled trial of vitamin E, cardiovascular events (MI, stroke, CVD death). Format: in vivo, human. The text has this: The study protocol of the ICARE study involves the following: participants were drawn from 47 primary health clinics of the […] Health Services in the northern sector of Israel. […] These Hp 2-2 individuals were randomly assigned to treatment with either vitamin E or placebo. The major study outcomes (MI, stroke, CVD death) were identified prospectively in this population over an 18 month period. A preplanned secondary analysis of ICARE was to assess the ability of vitamin E therapy to influence outcomes in those ICARE participants who were also taking statins. Statin use as prospectively defined in ICARE was based on the use of statins by the participant in at least eight of the twelve months preceding enrollment of the participant in the study. The decision to use statins for a particular participant was under the discretion of the patient's primary care physician and was in no way influenced by the patient's participation in the ICARE study […] However, only about half of the Hp 2-2 DM participants in ICARE received statin therapy. […] Of the 801 Hp 2-2 individuals taking […] cohort, 386 were randomized to vitamin E and 415 to placebo. There was no significant difference in the baseline characteristics, concurrent medications, or diabetes characteristics between those individuals taking statins who were randomized to placebo or vitamin E.

The conditions of data set [3]: double-blind protocols and other large studies, even at high doses; cited from earlier work.
Data set [4] has as its system cultured endothelial cells. As to conditions: vitamin E added to the cellular preparation; cited from earlier work.
The conditions of data set [5]: per 1 mg, according to the National Formulary, cited from earlier work.

With alpha-tocopherol [vitamin E], the carcinogenicity / teratogenicity entry in data set [1] is recorded as “not carcinogenic or teratogenic”. Besides, the “event rate (MI, stroke, CVD death)” value was 1.3% in data set [2] (Hp 2-2 DM individuals taking statins (at least eight of the twelve months preceding enrollment), randomized to vitamin E, 18 month period) and 1.7% in data set [2] (statin use widened to at least one of the twelve months preceding enrollment, p=0.013 vs placebo). Further, in data set [2] (Hp 2-2 DM individuals taking statins, vitamin E vs placebo, 95% CI 0.15-0.83, p=0.017 by log-rank), the “hazard ratio [HR] vs placebo” value was found to be 0.31. Further, in data set [2] (all Hp 2-2 DM participants in ICARE, vitamin E vs placebo), the “reduction in CVD events” value is reported as 50%. For the same compound, in data set [3], the side effects result was “few side effects”. The “oxidative modification of LDL” value in data set [4] is given as “totally inhibited”.
Take `CC(=O)Oc1c(C)c(C)c2c(c1C)CC[C@@](C)(CCC[C@H](C)CCC[C@H](C)CCCC(C)C)O2` (racemic) [dl-alpha-tocopheryl acetate]: the “specific activity (IU per milligram)” value in data set [5] (listed as all-rac-α-tocopherol acetate) was 1.00 IU.
For `CC(=O)Oc1c(C)c(C)c2c(c1C)CC[C@@](C)(CCC[C@H](C)CCC[C@H](C)CCCC(C)C)O2` [d-alpha-tocopheryl acetate], the “specific activity (IU per milligram)” value in data set [5] (listed as RRR-.alpha-tocopherol acetate) was 1.36 IU.
Take `Cc1c(C)c2c(c(C)c1O)CC[C@@](C)(CCC[C@H](C)CCC[C@H](C)CCCC(C)C)O2` [d-alpha-tocopherol]: the “specific activity (IU per milligram)” value in data set [5] is on record as 1.49 IU.
For the compound `Cc1c(C)c2c(c(C)c1O)CCC(C)(CCCC(C)CCCC(C)CCCC(C)C)O2` (racemic) [dl-alpha-tocopherol], the “specific activity (IU per milligram)” value in data set [5] was 1.10 IU.
